For test [1], the target named is Homoprotocatechuate 2,3-dioxygenase (FeHPCD) (Brevibacterium fuscum, UniProt Q45135). In words: competition with 4NC by UV-vis. Type of test: binding.
For test [2], the target named is T1, Homoprotocatechuate 2,3-dioxygenase (FeHPCD), Y257F variant (Brevibacterium fuscum, UniProt Q45135, Y257F). Nature of the test: competition with 4NC by UV-vis. The class given is binding.
For test [3], the target named is T1, Homoprotocatechuate 2,3-dioxygenase (FeHPCD), Y257F variant. In words: UV-vis spectral change on anaerobic binding.

For two molecules, Kd results are on record in publication PMC3513391 (Biochemistry, 2012).

Broadly, the Kd is the equilibrium constant for the complex coming apart.

`O=C(O)Cc1ccc(O)c(O)c1` [HPCA, homoprotocatechuate]: the Kd in test [1] and in test [2] was less than 5 µM in each case.
In test [3], `O=[N+]([O-])c1ccc(O)c(O)c1` [4NC, 4-nitrocatechol] yielded an equilibrium dissociation constant (Kd) of approximately 5 µM.
